Measurements taken from patent EP0341318A1, “NOVEL PLATINUM (II) COMPLEX, PROCESS FOR PREPARING THE SAME, AND THERAPEUTIC AGENT FOR MALIGNANT TUMOR” (TORAY INDUSTRIES, INC., priority 1987, dated 1989).
Where “and” joins values, the source holds several entries; their conditions need not be identical. Identical values can stand only once.

Experiments:
L1210 murine leukemia = experiment: Antitumor activity against L1210 murine leukemia in mice; type: in vivo, CDF1 mice; conditions: for Survival days (mean±SD): administered on 1st, 5th and 9th days after tumor inoculation, CDF1 mice, 10^5 L1210 cells i.p.; for T/C (%) / Survival rate: days 1, 5, 9; for T/C (%): L1210 in CDF1 mice; for Survival rate: Number of 30 days survival mice / group
Method: L1210 murine leukemia cells which were subcultured in DBA/2 mouse were inoculated intraperitoneally into CDF1 mice at 10^5 cells/mouse. Each experimental group was composed of 6-10 mice (male, 6-weeks old). Each test compound was administered three times, i.e., on the lst, 5th and 9th days after tumor inoculation. CBDCA and CDDP were used as control drugs in this experiment. Each compound was dissolved or suspended in 0.05% Tween 80 solution and administered in mice. Antitumor activity against L1210 leukemia was determined by T/C value calculated by the following equation and by the number of 30 days survival mice. [formula]
The antitumor activities of the compounds Nos. 3 to 5 of this invention were determined in the same way as in Example 6.

Slc:ICR mice = experiment: Acute toxicity test on mice; type: in vivo; conditions: intraperitoneal injection, Slc:ICR mice (male, 5 weeks old), mortality on the 14th day
Method: Each test compound was intraperitoneally injected into Slc:ICR mice (male, 5 weeks old). Each compound was formulated into a solution or suspension in a 0.05% Tween 80 solution. The LD50 value was calculated from mortality found on the 14th day after said injection.

Row | Molecule | Survival days (mean±SD) (L1210 murine leukemia; Dose 1 mg/kg) [days] | T/C (%) (L1210 murine leukemia; Dose 1 mg/kg) | Survival days (mean±SD) (L1210 murine leukemia; Dose 10 mg/kg) [days] | T/C (%) (L1210 murine leukemia; Dose 10 mg/kg) | Survival days (mean±SD) (L1210 murine leukemia; Dose 25 mg/kg) [days] | T/C (%) (L1210 murine leukemia; Dose 25 mg/kg) | Survival days (mean±SD) (L1210 murine leukemia; Dose 50 mg/kg) [days] | T/C (%) (L1210 murine leukemia; Dose 50 mg/kg) | Survival days (mean±SD) (L1210 murine leukemia; Dose 100 mg/kg) [days] | T/C (%) (L1210 murine leukemia; Dose 100 mg/kg) | Survival days (mean±SD) (L1210 murine leukemia; Dose 200 mg/kg) [days] | T/C (%) (L1210 murine leukemia; Dose 200 mg/kg) | Survival rate (L1210 murine leukemia; dose 1 mg/kg) | Survival rate (L1210 murine leukemia; dose 10 mg/kg) | Survival rate (L1210 murine leukemia; dose 25 mg/kg) | Survival rate (L1210 murine leukemia; dose 50 mg/kg) | Survival rate (L1210 murine leukemia; dose 100 mg/kg) | Survival rate (L1210 murine leukemia; dose 200 mg/kg) | LD50 (Slc:ICR mice) [mg/kg] | other results
1 | 2-(2-(2-Methoxyethoxy)ethoxy)ethyl 2,2-dimethyl-6,6,7,7,8,8,8-heptafluoro-3,5-dioxooctanoate- hydroxo(trans-l-1,2-diamino-cyclohexane)platinum(II) [Compound No. 4] | 10.7 ± 2.7 | 127 | 20.8 ± 7.8 | 248 | 23.7 ± 5.9 | 282 | 11.5 ± 9.5 | 137 | 2.0 ± 0.0 | 24 | 2.0 ± 0.0 | 24 | 0/6 | 2/6 | 2/6 | 1/6 | 0/6 | 0/6 | – | –
2 | 3-Heptafluorobutyryl-D-camphor-hydroxo(trans-l-1,2-diaminocyclohexane)platinum(II) [Compound No. 5] | 9.0 ± 0.6 | 111 | 14.7 ± 2.3 | 181 | 19.8 ± 6.1 | 244 | 15.3 ± 7.1 | 189 | 4.2 ± 1.0 | 52 | 2.0 ± 0.0 | 25 | 0/6 | 0/6 | 1/6 | 0/6 | 0/6 | 0/6 | 47 | –
3 | N.N.[Cl][Pt][Cl] [CDDP, cis-diamminedichloroplatinum(II), reference compound] | – | – | – | – | – | – | – | – | – | – | – | – | – | – | – | – | – | – | – | Survival days (mean±SD) (L1210 murine leukemia; Dose 2.5 mg/kg, 2.5 mg/kg): 14.7 ± 2.7 days and 12.0 ± 3.0 days and 13.2 ± 2.9 days; T/C (%) (L1210 murine leukemia; Dose 2.5 mg/kg): 181% and 143% and 163%; Survival days (mean±SD) (L1210 murine leukemia; Dose 5.0 mg/kg, 5 mg/kg): 18.8 ± 4.3 days and 14.3 ± 2.9 days and 13.7 ± 1.5 days and 16.0 ± 2.8 days; T/C (%) (L1210 murine leukemia; Dose 5.0 mg/kg): 232% and 170% and 163% and 198%; Survival days (mean±SD) (L1210 murine leukemia; Dose 7.5 mg/kg, 7.5 mg/kg): 18.7 ± 3.1 days and 15.5 ± 2.1 days and 14.2 ± 2.4 days; T/C (%) (L1210 murine leukemia; Dose 7.5 mg/kg): 231% and 185% and 175%; Survival rate (L1210 murine leukemia; dose 2.5 mg/kg): 0/6; Survival rate (L1210 murine leukemia; dose 5.0 mg/kg): 0/6; Survival rate (L1210 murine leukemia; dose 7.5 mg/kg): 0/6
4 | CC(C)(C)C(=O)C=C([O-])C(F)(F)C(F)(F)C(F)(F)F.N[C@@H]1CCCC[C@H]1N.[OH-].[Pt+2] [Compound No. 1, 2,2-Dimethyl-6,6,7,7,8,8,8-heptafluoro-3,5-octanedione-hydroxo(trans-I-1,2-diaminocyclohexane)platinum(II)] | 10.5 ± 1.2 | 130 | 29.5 ± 1.2 | 364 | 29.7 ± 0.5 | 367 | 24.0 ± 10.3 | 296 | 5.2 ± 1.9 | 64 | 1.7 ± 0.5 | 21 | 0/6 | 4/6 | 4/6 | 4/6 | 0/6 | 0/6 | 35 | T/C (%) (L1210 murine leukemia; Dose 10 mg/kg, listed as compound No. 1, 10 mg/kg): greater than 360%; T/C (%) (L1210 murine leukemia; Dose 25 mg/kg, listed as compound No. 1, 25 mg/kg): greater than 360%; antitumor activity (L1210 murine leukemia; comparison in words with control drugs, L1210 in mice): higher than CDDP and CBDCA
5 | N[C@@H]1CCCC[C@H]1N.O=C(O)CC(=O)C=C([O-])C(F)(F)C(F)(F)C(F)(F)F.[OH-].[Pt+2] [Compound No. 3, 6,6,7,7,8,8,8-Heptafluoro-3,5-dioxooctanoic acid hydroxo-(trans-l-1,2-diaminocyclohexane)platinum(II)] | 9.7 ± 1.4 | 115 | 9.7 ± 1.4 | 115 | 11.0 ± 0.9 | 131 | 11.8 ± 0.8 | 140 | 14.0 ± 2.7 | 167 | 11.2 ± 3.7 | 133 | 0/6 | 0/6 | 0/6 | 0/6 | 0/6 | 0/6 | >200 | –
6 | cis-diammine-1,1-cyclobutanedicarboxylate platinum(II) [CBDCA, reference compound] | 8.3 ± 0.5 | 98 | 9.3 ± 0.5 | 109 | 10.1 ± 1.3 | 119 | 13.1 ± 2.3 | 156 | 14.1 ± 3.7 | 166 | 9.6 ± 0.7 | 113 | 0/10 | 0/10 | 0/10 | 0/10 | 0/10 | 0/10 | – | –
